Laboratory results from patent US7994141B2, “Compositions comprising compounds of natural origin for damaged skin” (Biospectrum, Inc., priority 2006, dated 2011).

Key:
Conditions in all cases: individual compound of natural origin
[1] = system: NF-kB luciferase activity; assay: Anti-inflammatory effect: inhibition test of NF-kB luciferase activity (TNF-alpha treated fibroblasts); format: cell-based, Human fibroblasts and mouse fibroblasts, NIH3T3; parameters: key: −: No effect; +: Weak effect; ++: Moderate effect; +++: Strong effect; ++++: Very strong effect
Method: The anti-inflammatory effect was determined by the inhibition test of NF-kB luciferase activity. Human fibroblasts and mouse fibroblasts, NIH3T3 were transfected with NF-kB reporter DNA using SuperFect to induce transformation. At 24 hrs after transformation, the samples were treated with TNF-alpha (10 ng/ml). After 16 hrs, the cells were collected, and luminescence measurements were made […] using a Luminometer (Berthold, Germany).

Human keratinocytes = assay: Wound-healing effect: cell migration assay; format: cell-based; parameters: key: −: No effect; +: Weak effect; ++: Moderate effect; +++: Strong effect; ++++: Very strong effect
Method: The wound-healing effect was determined by a cell migration assay. Human keratinocytes were confluently cultured in keratinocyte-SFM media and then, treated with […] mitomycin C (Sigma Chemical) to inhibit cell growth for the measurement of cell migration. The confluent cell monolayer was scratched using a yellow pipette tip to create a cell-free region and then, the cell debris was washed with PBS. After the treatment, the samples were cultured in keratinocyte-SFM media for 48 hrs to observe the effect on cell migration (Cecile A et. al., Molecular Biology of the Cell, 2002; 13: 3845-3858).

[2] = Determination of antioxidant activity (DPPH method); format: biochemical
Method: DPPH (1,1-diphenyl-2-picrylhydrazyl) is a chromogenic radical and thus, can be used to directly confirm the radical scavenging activity of the samples. The samples were dissolved in 4 ml of distilled water or solvent (methanol) and then, mixed well with 1 ml of 100 μM DPPH. Subsequently, the samples were incubated at room temperature for 30 minutes. The absorbance of the remaining DPPH was measured at 517 nm. As a blank of the present experiment, distilled water or solvent was used, and as a control, an experimental group composed only of DPPH in distilled water or solvent without the sample was used. Further, vitamin C was used as a positive control.

[3] = Moisturizing effect: transepidermal water loss (Tewameter TM210); format: in vivo, human subjects; parameters: key: −: No effect; +: Weak effect; ++: Moderate effect; +++: Strong effect; ++++: Very strong effect
Method: The transepidermal water loss was measured using a Tewameter TM210 (Germany). The measurement was performed twice, before the treatment and at 2 weeks after the treatment, and the results were statistically compared. The measurement was performed in a temperature/humidity controlled room (no air flow, no light, at a temperature of 22° C. and relative humidity of 40%). The measurement was performed in the abdomen of thirty subjects.

Row | Structure (SMILES) | Anti-inflammatory effect [1] | Wound-healing effect (Human keratinocytes) | Antioxidant effect [2] | Moisturizing effect [3]
1 | O=C1O[C@H]([C@@H](O)CO)C(O)=C1O [Ascorbic acid] | + | ++ | + | −
2 | OCCc1ccc(O)c(O)c1 [Hydroxytyrosol] | + | + |  | +
3 | CC(C)=CCC/C(C)=C/CO [Geraniol] | ++ | + |  | −
4 | C[C@@H]1CC[C@@]2(OC1)O[C@H]1C[C@H]3[C@@H]4CC=C5C[C@@H](O)CC[C@]5(C)[C@H]4CC[C@]3(C)[C@H]1[C@@H]2C [Diosgenin] | + | ++ | − | +
5 | CC(C)=CCC[C@](C)(O[C@@H]1O[C@H](CO[C@@H]2O[C@H](CO)[C@@H](O)[C@H](O)[C@H]2O)[C@@H](O)[C@H](O)[C@H]1O)[C@H]1CC[C@]2(C)[C@@H]1[C@H](O)C[C@@H]1[C@@]3(C)CC[C@H](O[C@@H]4O[C@H](CO)[C@@H](O)[C@H](O)[C@H]4O[C@@H]4O[C@H](CO)[C@@H](O)[C@H](O)[C@H]4O)C(C)(C)[C@@H]3CC[C@]12C [Ginsenoside Rb1] | + | + | − | +
6 | CCCCCCCC/C=C\CCCCCCCC(=O)O [Oleic acid] | + | + | + | +
7 | O=C(O)/C=C/c1ccc(O)c(O)c1 [Caffeic acid] | + | + | + | +
8 | O=c1cc(-c2ccccc2)oc2cc(O)c(O)c(O)c12 [Baicalein] | ++ | ++ | ++ | ++
9 | O=C(/C=C/c1ccc(O)c(O)c1)O[C@H](Cc1ccc(O)c(O)c1)C(=O)O [Rosmarinic acid] | ++ | ++ | ++ | ++
10 | C=CCc1ccc(O)c(-c2ccc(O)c(CC=C)c2)c1 [Honokiol] | + | ++ | + | −
11 | Cc1cc(O)c2c(c1)C(=O)c1cc(O)cc(O)c1C2=O [Emodin] | ++ | ++ | ++ | ++
12 | C[C@H]1[C@H](C)CC[C@]2(C(=O)O)CC[C@]3(C)C(=CC[C@@H]4[C@@]5(C)C[C@@H](O)[C@H](O)[C@@](C)(CO)[C@@H]5[C@H](O)C[C@]43C)[C@H]12 [Madecassic acid] | ++ | ++ |  | ++
13 | CCCCCCCC/C=C/CCCCCCCC(=O)O [Elaidic acid] | + | + | + | −
14 | O=c1ccc2ccccc2o1 [Coumarin] | ++ | + | + | −
15 | O=c1c(O)c(-c2ccc(O)c(O)c2)oc2cc(O)cc(O)c12 [Quercetin] | ++ | ++ | ++ | ++
16 | O=C(O)CCCCC1CCSS1 (stereo not drawn) [alpha-lipoic acid] | + | ++ | + | −
17 | C[C@@H]1O[C@@H](OC[C@H]2O[C@@H](Oc3c(-c4ccc(O)c(O)c4)oc4cc(O)cc(O)c4c3=O)[C@H](O)[C@@H](O)[C@@H]2O)[C@H](O)[C@H](O)[C@H]1O [Rutin] | + | + |  | +
18 | CC1=C(O)C(=O)C(C)O1 (stereo not shown) [Furaneol] | + | + |  | +
19 | CC/C=C\C/C=C\C/C=C\CCCCCCCC(=O)O [Linolenic acid] | ++ | ++ |  | ++
20 | O=P(O)(O)O[C@H]1[C@H](OP(=O)(O)O)[C@@H](OP(=O)(O)O)[C@H](OP(=O)(O)O)[C@@H](OP(=O)(O)O)[C@H]1OP(=O)(O)O [Phytic acid] | + | ++ | + | −
21 | O=C(O)c1cc(O)c(O)c(O)c1 [Garlic acid] | + | + | + | −
22 | OCc1c[nH]c2ccccc12 [Indole-3-carbinol] | + | + | + | −
23 | CC1(C)[C@@H](O[C@H]2O[C@H](C(=O)O)[C@@H](O)[C@H](O)[C@H]2O[C@@H]2O[C@H](C(=O)O)[C@@H](O)[C@H](O)[C@H]2O)CC[C@]2(C)[C@H]3C(=O)C=C4[C@@H]5C[C@@](C)(C(=O)O)CC[C@]5(C)CC[C@@]4(C)[C@]3(C)CC[C@@H]12 [Glycyrrhizin] | ++ | ++ | ++ | ++
24 | Oc1cc(O)cc(/C=C/c2ccccc2)c1 [Pinosylvin] | + | ++ | + | −
25 | CC1=C(/C=C/C(C)=C/C=C/C(C)=C/CO)C(C)(C)CCC1 [Retinol] | + | + | + | −
26 | COC1=C(OC)C(=O)C(C/C=C(\C)CC/C=C(\C)CC/C=C(\C)CC/C=C(\C)CC/C=C(\C)CC/C=C(\C)CC/C=C(\C)CC/C=C(\C)CC/C=C(\C)CCC=C(C)C)=C(C)C1=O [Coenzyme Q10] | − | + | + | +
27 | CCc1ccc(C)c2ccc(C)c-2c1 [Chamazulene] | ++ | ++ | ++ | ++
28 | C=CCc1ccc(O)c(-c2cc(CC=C)ccc2O)c1 [Magnolol] | + | + | + | −
29 | Cc1c(C)c2c(c(C)c1O)CC[C@@](C)(CCC[C@H](C)CCC[C@H](C)CCCC(C)C)O2 [alpha-Tocopherol] | + | ++ | + | 
